Assay results as given in ChEMBL document CHEMBL1201862, “PubChem BioAssay data set” (2004).
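Growth conditions: 96-well plates. Treatment: test compound, 48 hours, 5 concentrations. Analysis: linear interpolation between bracketing concentrations; unreached endpoints set to highest concentration. The concentration for 50% growth inhibition is given as GI50.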 Activity calls are given as the source filed them. No stated cut-off is given here; in the data, active = GI50 up to about 1.1 µM and inactive = higher.

Tests used:
Assay in all cases: NCI tumour cell line growth inhibition, 48 h
A498 = tested on: A498
HOP-62 = tested on: HOP-62
HCT-116 = tested on: HCT-116
M14 = tested on: M14
TK-10 = tested on: TK-10
HT-29 = tested on: HT-29
SN12C = tested on: SN12C
T47D = tested on: T47D
OVCAR-4 = tested on: OVCAR-4
OVCAR-5 = tested on: OVCAR-5
SK-OV-3 = tested on: SK-OV-3
HCC 2998 = tested on: HCC 2998
EKVX = tested on: EKVX
Malme-3M = tested on: Malme-3M
K562 = tested on: K562
CCRF-CEM = tested on: CCRF-CEM
U-251 = tested on: U-251
NCI-H23 = tested on: NCI-H23
SK-MEL-2 = tested on: SK-MEL-2
MDA-MB-435 = tested on: MDA-MB-435
SF-295 = tested on: SF-295
RXF 393 = tested on: RXF 393
LOX IMVI = tested on: LOX IMVI
UACC-257 = tested on: UACC-257
UACC-62 = tested on: UACC-62
MDA-N = tested on: MDA-N
MOLT-4 = tested on: MOLT-4
HL-60 = tested on: HL-60
HOP-92 = tested on: HOP-92
SK-MEL-5 = tested on: SK-MEL-5
A549 = tested on: A549
NCI-H522 = tested on: NCI-H522
NCI/ADR-RES = tested on: NCI/ADR-RES
UO-31 = tested on: UO-31
Hs-578T = tested on: Hs-578T
SF-539 = tested on: SF-539
IGROV-1 = tested on: IGROV-1
MCF7 = tested on: MCF7
OVCAR-8 = tested on: OVCAR-8
RPMI-8226 = tested on: RPMI-8226
NCI-H226 = tested on: NCI-H226
KM12 = tested on: KM12
PC-3 = tested on: PC-3
SR = tested on: SR
786-0 = tested on: 786-0
ACHN = tested on: ACHN
OVCAR-3 = tested on: OVCAR-3
MDA-MB-231 = tested on: MDA-MB-231
COLO 205 = tested on: COLO 205
SNB-19 = tested on: SNB-19
SW-620 = tested on: SW-620
CAKI-1 = tested on: CAKI-1
NCI-H460 = tested on: NCI-H460
SK-MEL-28 = tested on: SK-MEL-28
SNB-75 = tested on: SNB-75
HCT-15 = tested on: HCT-15
SF-268 = tested on: SF-268
DU-145 = tested on: DU-145

Measured: GI50

COC(=O)c1c2c(cc3c1CC1(C3)Cc3cc4c(c(C(=O)OC)c3C1)CCC4)CCC2
inactive: A498 > 100 µM | HOP-62 > 100 µM | HCT-116 > 100 µM | M14 > 100 µM | TK-10 > 100 µM | HT-29 > 100 µM | SN12C > 100 µM | T47D > 100 µM | OVCAR-4 86.9 µM | OVCAR-5 > 100 µM | SK-OV-3 > 100 µM | HCC 2998 > 100 µM | EKVX > 100 µM | Malme-3M > 100 µM | K562 > 100 µM | CCRF-CEM 98.9 µM | U-251 > 100 µM | NCI-H23 > 100 µM | SK-MEL-2 > 100 µM | MDA-MB-435 > 100 µM | SF-295 > 100 µM | RXF 393 > 100 µM | LOX IMVI > 100 µM | UACC-257 > 100 µM | UACC-62 55.8 µM | MDA-N > 100 µM | MOLT-4 > 100 µM | HL-60 22.1 µM | HOP-92 > 100 µM | SK-MEL-5 > 100 µM | A549 > 100 µM | NCI-H522 > 100 µM | NCI/ADR-RES > 100 µM | UO-31 13.6 µM | Hs-578T 65.9 µM | SF-539 > 100 µM | IGROV-1 > 100 µM | MCF7 > 100 µM | OVCAR-8 > 100 µM | RPMI-8226 > 100 µM | NCI-H226 > 100 µM | KM12 > 100 µM | PC-3 > 100 µM | SR 30.7 µM | 786-0 > 100 µM | ACHN > 100 µM | OVCAR-3 > 100 µM | MDA-MB-231 > 100 µM | COLO 205 > 100 µM

CC(C)Cc1ccc(C(C)C(=O)O)cc1 (stereo not drawn) [IBUPROFEN]
inactive: NCI-H23 > 100 µM

Cc1ccc(C(=O)N/N=C(\N=N\c2ccccc2)c2ccc(N(CCC#N)CCC#N)cc2C)cc1
inactive: A498 > 100 µM | HOP-62 23.1 µM | M14 > 100 µM | TK-10 51.1 µM | HT-29 35.1 µM | T47D > 100 µM | OVCAR-4 65.5 µM | OVCAR-5 > 100 µM | SK-OV-3 74 µM | HCC 2998 > 100 µM | EKVX 74.6 µM | K562 > 100 µM | CCRF-CEM > 100 µM | SNB-19 58.3 µM | U-251 92.5 µM | SW-620 > 100 µM | NCI-H23 85.7 µM | SK-MEL-2 69.8 µM | MDA-MB-435 45.6 µM | SF-295 86.5 µM | RXF 393 38.9 µM | LOX IMVI 99.1 µM | UACC-257 82.4 µM | UACC-62 38.8 µM | MOLT-4 > 100 µM | CAKI-1 64.6 µM | HL-60 > 100 µM | HOP-92 > 100 µM | NCI-H460 > 100 µM | SK-MEL-5 31.8 µM | A549 > 100 µM | NCI-H522 19.4 µM | NCI/ADR-RES > 100 µM | SK-MEL-28 13 µM | UO-31 > 100 µM | Hs-578T 28.2 µM | SF-539 18.3 µM | IGROV-1 > 100 µM | MCF7 53.5 µM | OVCAR-8 38 µM | RPMI-8226 > 100 µM | NCI-H226 54.8 µM | SNB-75 34 µM | KM12 > 100 µM | PC-3 67.9 µM | SR > 100 µM | ACHN > 100 µM | OVCAR-3 39.2 µM | MDA-MB-231 > 100 µM | COLO 205 > 100 µM | SF-268 24.2 µM | DU-145 > 100 µM
> 100 µM: HCT-15
